Test results taken from publication PMC7576608, “Mechanisms of telomerase inhibition by oxidized and therapeutic dNTPs” (Nature Communications, 2020).
“And” between values parts separate entries of the source, which are not always exact repeats. Identical values can stand only once. Like-named read-outs stand apart in the source and are kept apart here.

Target: telomerase (Homo sapiens, UniProt O14746)
Assay: Telomerase repeat processivity IC50: modified dNTP titrated into reactions with all four natural dNTPs
Assay type: biochemical
Parameters: made in house; anti-FLAG immunopurification, eluted with 3xFLAG peptide
Conditions: for Best-fit values HillSlope / Best-fit values Span / Best-fit values LogIC50: dose-response fit of processivity R 1/2; for Best-fit values LogIC50: log of concentration in μM; for Best-fit values Bottom / Best-fit values Top: dose-response fit of processivity R 1/2 vs log(concentration)
Method in brief: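 Immunopurified human telomerase reactions with cellular-relevant levels of all four natural dNTPs plus modified dNTP titrated 0–10,000 μM, 1 h at 37 °C; products resolved on denaturing gels and phosphorimaged. Repeat processivity R1/2 = −ln(2)/slope of ln(100−%LB) vs repeat number; IC50 is concentration halving bulk repeat processivity.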

[1] = cellular relevant natural dNTPs, modified dNTP titrated 0 to 10,000 μM, based on repeat processivity, mean ± SD, read-out: Telomerase processivity IC50
[2] = fit of R 1/2 vs log(concentration), 8-oxo-dGTP, replicates N1-N4
[3] = log of processivity IC50 (concentration in μM), Supplementary Fig 8b, read-out: Log IC50 (converted)
[4] = modified dNTP concentration 31.25 μM, individual replicates n1-n3
[5] = modified dNTP concentration 500 μM, individual replicates
[6] = modified dNTP concentration 1000 μM, individual replicates
[7] = modified dNTP concentration 2000 μM, individual replicates
[8] = repeat processivity R 1/2, individual replicates N1-N3, read-out: Best-fit values IC50
[9] = repeat processivity R 1/2, mean of replicates, read-out: Mean IC50

Chain of telomerase (O14746 whole entry): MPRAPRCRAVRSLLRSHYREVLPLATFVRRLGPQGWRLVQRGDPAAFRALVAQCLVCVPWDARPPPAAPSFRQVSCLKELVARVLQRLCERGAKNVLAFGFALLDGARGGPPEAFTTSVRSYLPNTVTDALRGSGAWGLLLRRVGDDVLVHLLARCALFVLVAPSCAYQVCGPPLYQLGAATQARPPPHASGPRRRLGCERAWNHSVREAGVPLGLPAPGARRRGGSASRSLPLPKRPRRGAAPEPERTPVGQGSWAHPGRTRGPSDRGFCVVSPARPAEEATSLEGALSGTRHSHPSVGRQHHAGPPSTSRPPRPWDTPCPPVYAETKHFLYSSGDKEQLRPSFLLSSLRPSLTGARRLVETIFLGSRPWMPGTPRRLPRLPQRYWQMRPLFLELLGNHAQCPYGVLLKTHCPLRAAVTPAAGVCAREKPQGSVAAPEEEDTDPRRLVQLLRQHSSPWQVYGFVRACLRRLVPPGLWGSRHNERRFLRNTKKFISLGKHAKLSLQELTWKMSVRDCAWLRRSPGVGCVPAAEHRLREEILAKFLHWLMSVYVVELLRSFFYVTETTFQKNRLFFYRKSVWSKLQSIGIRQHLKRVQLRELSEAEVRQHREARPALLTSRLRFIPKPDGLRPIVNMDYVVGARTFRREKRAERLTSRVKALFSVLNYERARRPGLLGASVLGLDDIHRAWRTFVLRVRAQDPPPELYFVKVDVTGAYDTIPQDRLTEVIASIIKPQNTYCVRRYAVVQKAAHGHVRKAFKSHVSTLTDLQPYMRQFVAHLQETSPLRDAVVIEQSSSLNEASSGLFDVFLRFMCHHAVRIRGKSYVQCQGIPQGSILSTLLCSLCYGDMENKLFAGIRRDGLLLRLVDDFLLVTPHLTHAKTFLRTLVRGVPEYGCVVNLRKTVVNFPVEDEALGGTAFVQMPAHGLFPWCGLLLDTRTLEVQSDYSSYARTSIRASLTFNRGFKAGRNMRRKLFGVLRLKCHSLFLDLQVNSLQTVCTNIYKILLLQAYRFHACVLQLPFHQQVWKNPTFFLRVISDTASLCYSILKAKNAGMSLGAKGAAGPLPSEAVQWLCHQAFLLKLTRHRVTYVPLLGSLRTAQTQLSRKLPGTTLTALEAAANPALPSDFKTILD

With Nc1nc2c([nH]c(=O)n2C2CC(O)C(COP(=O)(O)OP(=O)(O)OP(=O)(O)O)O2)c(=O)[nH]1 (centres unmarked) [8-oxo-dGTP] the “Processivity R 1/2” value (8-oxo-dGTP 156.25 μM, replicates n1-n4) was 3.18 and 2.53 and 3.23, the “YIntercept (line fit of ln(100-%LB) vs # telomere repeats)” value (8-oxo-dGTP 160μM, n1-n3) was 3.28 and 3.52 and 3.30 and the “ln(100-%LB)” value (8-oxo-dGTP 160μM, telomere repeat 1, n1-n3) was 3.67 and 3.81 and 3.65. For the same compound, the “ln(100-%LB)” value (8-oxo-dGTP 160μM, telomere repeat 2, n1-n3) was 3.11 and 3.28 and 3.14, the “ln(100-%LB)” value (8-oxo-dGTP 160μM, telomere repeat 3, n1-n3) was 2.62 and 2.68 and 2.65 and the “ln(100-%LB)” value (8-oxo-dGTP 160μM, telomere repeat 4, n1-n3) was 2.38 and 2.37 and 2.44. For the same compound, the “ln(100-%LB)” value (8-oxo-dGTP 160μM, telomere repeat 5, n1-n3) was 2.10 and 2.03 and 2.19, the “ln(100-%LB)” value (8-oxo-dGTP 160μM, telomere repeat 6, n1-n3) was 1.76 and 1.70 and 1.93 and the “ln(100-%LB)” value (8-oxo-dGTP 160μM, telomere repeat 7, n1-n3) was 1.44 and 1.37 and 1.64. For the same compound, the “ln(100-%LB)” value (8-oxo-dGTP 160μM, telomere repeat 8, n1-n3) was 1.22 and 1.14 and 1.43, the “ln(100-%LB)” value (8-oxo-dGTP 160μM, telomere repeat 9, n1-n3) was 0.99 and 0.88 and 1.23 and the “ln(100-%LB)” value (8-oxo-dGTP 160μM, telomere repeat 10, n1-n3) was 0.74 and 0.58 and 1.00. For the same compound, the “YIntercept (line fit of ln(100-%LB) vs # telomere repeats)” value (8-oxo-dGTP 625μM, n1-n3) was 3.24 and 3.54 and 3.75, the “Processivity R 1/2” value (8-oxo-dGTP 625 μM, replicates n1-n4) was 2.67 and 2.52 and 3.04 and the “ln(100-%LB)” value (8-oxo-dGTP 625μM, telomere repeat 1, n1-n3) was 3.67 and 3.79 and 3.89. For the same compound, the “ln(100-%LB)” value (8-oxo-dGTP 625μM, telomere repeat 2, n1-n3) was 3.11 and 3.31 and 3.40, the “ln(100-%LB)” value (8-oxo-dGTP 625μM, telomere repeat 3, n1-n3) was 2.62 and 2.84 and 2.91 and the “ln(100-%LB)” value (8-oxo-dGTP 625μM, telomere repeat 4, n1-n3) was 2.38 and 2.60 and 2.62. For the same compound, the “ln(100-%LB)” value (8-oxo-dGTP 625μM, telomere repeat 5, n1-n3) was 2.10 and 2.36 and 2.34, the “ln(100-%LB)” value (8-oxo-dGTP 625μM, telomere repeat 6, n1-n3) was 1.76 and 2.09 and 2.01 and the “ln(100-%LB)” value (8-oxo-dGTP 625μM, telomere repeat 7, n1-n3) was 1.44 and 1.77 and 1.66. The “ln(100-%LB)” value (8-oxo-dGTP 625μM, telomere repeat 8, n1-n3) was 1.22 and 1.56 and 1.41, the “ln(100-%LB)” value (8-oxo-dGTP 625μM, telomere repeat 9, n1-n3) was 0.99 and 1.31 and 1.14 and the “ln(100-%LB)” value (8-oxo-dGTP 625μM, telomere repeat 10, n1-n3) was 0.74 and 1.05 and 0.85. The “ln(100-%LB)” value (8-oxo-dGTP 625μM, telomere repeat 11, n1-n3) was 0.51 and 0.79 and 0.55, the “ln(100-%LB)” value (8-oxo-dGTP 625μM, telomere repeat 12, n1-n3) was 0.32 and 0.58 and 0.29 and the “YIntercept (line fit of ln(100-%LB) vs # telomere repeats)” value (8-oxo-dGTP 2500μM, n1-n3) was 4.49 and 4.30 and 4.68. For the same compound, the “Processivity R 1/2” value (8-oxo-dGTP 2500 μM, replicates n1-n4) was 0.72 and 0.43 (2×) and 0.55, the “ln(100-%LB)” value (8-oxo-dGTP 2500μM, telomere repeat 1, n1-n3) was 3.44 and 3.70 and 3.07 and the “Processivity R 1/2” value (8-oxo-dGTP 5000 μM, replicates n1-n4) was 0. The “Processivity R 1/2” value (8-oxo-dGTP 10000 μM, replicates n1-n4) was 0, the IC50 [1] was 1690 ± 172 µM and the LogIC50 (fit of R 1/2 vs log(concentration μM), 8-oxo-dGTP, replicates N1-N4) was 3.24 and 3.27 and 3.16 and 3.23. The “Bottom (best-fit value)” value [2] was 0.33 and -0.00509 and -0.0042 and -0.0316, the HillSlope [2] was -4.72 and -6.07 and -3.06 and -3.86 and the “Span (best-fit value)” value [2] was 2.87 and 3.02 and 2.71 and 3.30. For the same compound, the “Top (best-fit value)” value [2] was 3.21 and 3.01 and 2.70 and 3.27, the IC50 [3] was 2000 µM and the IC50 (repeat processivity R 1/2, 8-oxo-dGTP, single replicates N1-N4, read-out: IC50) was 1740 µM and 1870 µM and 1460 µM and 1690 µM.

For Cc1cn([C@H]2C[C@H](N=[N+]=[N-])[C@@H](CO[P@](=O)(O)O[P@](=O)(O)OP(=O)(O)O)O2)c(=O)[nH]c1=O [AZT-TP], the IC50 [1] was 402 ± 169 µM, the “Best-fit values HillSlope” value (individual replicates) was -0.83 and -0.51 and the “Best-fit values Span” value (individual replicates) was 2.37 and 4.19. For the same compound, the “Best-fit values LogIC50” value (individual replicates) was 2.72 and 2.45, the “Best-fit values Bottom” value (individual replicates) was -0.33 and -0.59 and the “Best-fit values Top” value (individual replicates) was 2.04 and 3.59. For the same compound, the IC50 [3] was 501 µM, the “Processivity R 1/2” value [4] was 1.70 and 1.35 and the “Processivity R 1/2” value [5] was 0.80 and 0.64. The “Processivity R 1/2” value [6] was 0.57 and 0.61, the “Processivity R 1/2” value [7] was 0.00 and 0.49 and the “Processivity R 1/2” value (modified dNTP concentration 4000 μM, individual replicates) was 0.00. The IC50 [8] was 521 µM and 282 µM and the IC50 [9] was 402 µM.

O=c1[nH]cnc2c1ncn2C1CCC(COP(=O)(O)OP(=O)(O)OP(=O)(O)O)O1 (centres unmarked) [ddITP] was tested, and the IC50 [1] was 61 ± 23 µM, the “YIntercept (line fit of ln(100-%LB) vs # telomere repeats)” value (ddITP 31μM) was 3.68 and 3.90 and 3.32 and the “ln(100-%LB)” value (ddITP 31μM, telomere repeat 1) was 3.63 and 3.77 and 3.47. The “ln(100-%LB)” value (ddITP 31μM, telomere repeat 2) was 2.96 and 3.17 and 2.59, the “ln(100-%LB)” value (ddITP 31μM, telomere repeat 3) was 2.31 and 2.52 and 1.69 and the “ln(100-%LB)” value (ddITP 31μM, telomere repeat 4) was 1.98 and 2.18 and 1.18. The “YIntercept (line fit of ln(100-%LB) vs # telomere repeats)” value (ddITP 62μM) was 4.03 and 4.15, the “ln(100-%LB)” value (ddITP 62μM, telomere repeat 1) was 3.64 and 3.75 and the “ln(100-%LB)” value (ddITP 62μM, telomere repeat 2) was 2.81 and 2.79. The “ln(100-%LB)” value (ddITP 62μM, telomere repeat 3) was 1.96 and 1.84, the “ln(100-%LB)” value (ddITP 62μM, telomere repeat 4) was 1.44 and 1.17 and the “ln(100-%LB)” value (ddITP 62μM, telomere repeat 5) was 0.94 and 0.56. For the same compound, the “YIntercept (line fit of ln(100-%LB) vs # telomere repeats)” value (ddITP 250μM) was 4.62 and 3.98, the “ln(100-%LB)” value (ddITP 250μM, telomere repeat 1) was 3.84 and 3.61 and the “ln(100-%LB)” value (ddITP 250μM, telomere repeat 2) was 2.72 and 2.32. For the same compound, the “ln(100-%LB)” value (ddITP 250μM, telomere repeat 3) was 1.42 and 1.15, the “ln(100-%LB)” value (ddITP 250μM, telomere repeat 4) was 0.59 and 0.39 and the “Slope (line fit of ln(100-%LB) vs # telomere repeats)” value (ddITP 500μM) was -0.95. The “YIntercept (line fit of ln(100-%LB) vs # telomere repeats)” value (ddITP 500μM) was 4.49, the “ln(100-%LB)” value (ddITP 500μM, telomere repeat 1) was 3.63 and 3.72 and the “ln(100-%LB)” value (ddITP 500μM, telomere repeat 2) was 2.49 and 2.52. For the same compound, the “ln(100-%LB)” value (ddITP 500μM, telomere repeat 3) was 1.54 and 1.27, the “ln(100-%LB)” value (ddITP 500μM, telomere repeat 4) was 0.70 and 0.51 and the “YIntercept (line fit of ln(100-%LB) vs # telomere repeats)” value (ddITP 750μM) was 4.67 and 4.49. For the same compound, the “ln(100-%LB)” value (ddITP 750μM, telomere repeat 1) was 3.72 and 3.79, the “ln(100-%LB)” value (ddITP 750μM, telomere repeat 2) was 2.57 and 2.74 and the “ln(100-%LB)” value (ddITP 750μM, telomere repeat 3) was 1.55 and 1.58. The “ln(100-%LB)” value (ddITP 750μM, telomere repeat 4) was 0.67 and 0.79, the “YIntercept (line fit of ln(100-%LB) vs # telomere repeats)” value (ddITP 1000μM) was 4.63 and 4.20 and the “ln(100-%LB)” value (ddITP 1000μM, telomere repeat 1) was 3.82 and 3.80. The “ln(100-%LB)” value (ddITP 1000μM, telomere repeat 2) was 3.01 and 3.04, the “ln(100-%LB)” value (ddITP 1000μM, telomere repeat 3) was 2.22 and 2.25 and the “ln(100-%LB)” value (ddITP 1000μM, telomere repeat 4) was 1.56 and 1.76. For the same compound, the “ln(100-%LB)” value (ddITP 1000μM, telomere repeat 5) was 0.86 and 1.29, the “Slope (line fit of ln(100-%LB) vs # telomere repeats)” value (ddITP 1500) was -0.86 and the “YIntercept (line fit of ln(100-%LB) vs # telomere repeats)” value (ddITP 1500) was 4.62 and 4.48. For the same compound, the “ln(100-%LB)” value (ddITP 1500, telomere repeat 1) was 3.74 and 3.65, the “ln(100-%LB)” value (ddITP 1500, telomere repeat 2) was 2.90 and 2.79 and the “ln(100-%LB)” value (ddITP 1500, telomere repeat 3) was 2.03 and 1.76. For the same compound, the “ln(100-%LB)” value (ddITP 1500, telomere repeat 4) was 1.25 and 1.21, the “ln(100-%LB)” value (ddITP 1500, telomere repeat 5) was 0.25 and 0.17 and the “Best-fit values HillSlope” value (individual replicates) was -1.214 and -1.087 and -1.6. The “Best-fit values Span” value (individual replicates) was 1.373 and 2.642 and 1.489, the “Best-fit values LogIC50” value (individual replicates) was 1.601 and 1.931 and 1.751 and the “Best-fit values Bottom” value (individual replicates) was 0.6806 and 0.1353 and 0.7679. For the same compound, the “Best-fit values Top” value (individual replicates) was 2.054 and 2.778 and 2.257, the IC50 [3] was 63.1 µM and the “Processivity R 1/2” value [4] was 1.52 and 2.08 and 1.82. For the same compound, the “Processivity R 1/2” value (modified dNTP concentration 62.5 μM, individual replicates) was 1.13 and 1.82, the “Processivity R 1/2” value (modified dNTP concentration 250 μM, individual replicates) was 0.87 and 0.71 and the “Processivity R 1/2” value [5] was 0.8 and 0.73 (2×). The “Processivity R 1/2” value (modified dNTP concentration 750 μM, individual replicates) was 0.8 and 0.49, the “Processivity R 1/2” value [6] was 0.69 (2×) and 0.47 and the “Processivity R 1/2” value (modified dNTP concentration 1500 μM, individual replicates) was 0.81 and 0.26 and 0.88. The “Processivity R 1/2” value [7] was 0.45 and 0 and 0.81, the IC50 [8] was 39.9 µM and 85.3 µM and 56.4 µM and the IC50 [9] was 60.5 µM.
